According to article PMC9686516, “Pharmacokinetic Characteristics of Nebulized Colistimethate Sodium Using Two Different Types of Nebulizers in Critically Ill Patients with Ventilator-Associated Respiratory Infections” (Antibiotics, 2022):
Where two headings read alike, the source gives them in different places. Where a SMILES comes first, the peptide text is derived from it. Bridges are numbered along the chain shown (N, C = ends). [ ]: non-standard residue; d: D form. The star is where a group is joined. X1 = CC[C@H](C)CCCCC(=O)*; Dab = NCC[C@H](N)C(=O)O

Legend:
[1] = cited from earlier work
Procedure: The median (IQR) values of colistin concentration in plasma (Ccolistin, plasma) using VMN nebulization were 0.6 (0.4–0.7) mg/L, 2.3 (1.4–2.7) mg/L, 1.7 (1.1–2.0) mg/L, 0.8 (0.7–0.9) mg/L, 0.4 (0.3–0.6) mg/L, and 0.2 (0.2–0.4) mg/L, at 0.5, 1, 2, 4, 6 and 8 h post-nebulization. The corresponding values with JN were 0.1 (0.1–0.1) mg/L, 0.1 (0.1–0.2) mg/L, 0.3 (0.3–0.4) mg/L, 0.2 (0.2–0.2) mg/L, 0.1 (0.1–0.1) mg/L, and 0.1 (0.1–0.1) mg/L (Figure 3). Median Ccolistin, plasma was greater than 2 mg/L at 1 h post-nebulization, a value which is the average concentration, in steady-state conditions, th ... || Contrarily, our results were only marginally compatible with the results of Boisson et al. and Gkoufa et al.. In the former study, the range of colistin concentration in the ELF following a 2 mIU inhalation spanned from 9.53 to 1137 mg/L [14], while it was between 0.8 mg/L and 57.9 mg/L in the present study. In the latter study, the exact values were not reported, however in the figured data it was shown that after an inhalation of 3 to 5 mIU of CMS, formed colistin concentrations were in the range of 10^2 to 10^3 mg/L [16]. Again, it is not known whether these differences we ...

[2] = Colistin pharmacokinetics in epithelial lining fluid (ELF) after nebulized CMS in ventilated VARI patients; assay type: in vivo, human; conditions: 2 mIU CMS inhaled; for AUC0–8 h: ELF (mini-BAL, urea-corrected), no systemic CMS, HPLC-fluorescence; for AUC0–8 h / Volume of distribution/ fraction of dose absorbed / Clearance/fraction of dose absorbed / Cmax: NCA; for AUC0–8 h / Volume of distribution/ fraction of dose absorbed / Clearance/fraction of dose absorbed / Cmax / AUC0–24 / Cmin / Tmax / level at 1 h / level at 4 h / level at 6 h / level at 8 h: median (IQR); for Ccolistin over 2 mg/L, frequency of patients / Ccolistin over 4 mg/L, frequency of patients / Volume of distribution/ fraction of dose absorbed / Clearance/fraction of dose absorbed / Cmax / AUC0–24 / Cmin / Tmax / level at 1 h / level at 4 h / level at 6 h / level at 8 h: ELF; for Volume of distribution/ fraction of dose absorbed: dose/(λ × AUCinf); for Clearance/fraction of dose absorbed: dose/AUCinf; for AUC0–24: calculated as AUCinf × 3 (thrice daily), total colistin; for level at 1 h / level at 4 h / level at 6 h / level at 8 h / Kp: human, inhaled or intranasal, 2 mIU; for level at 1 h / level at 4 h / level at 6 h / level at 8 h: epithelial lining fluid (ELF), read-out: Ccolistin,ELF; for level at 1 h: 1 h post-nebulization; for level at 4 h: 4 h post-nebulization; for level at 6 h: 6 h post-nebulization; for level at 8 h: 8 h post-nebulization; for Kp: epithelial lining fluid (ELF)/plasma, ELF/plasma mean concentration ratio, mean (SD), SD
Source text: The study population consisted of 24 critically ill adult patients, admitted to the intensive care unit of the First Department of Pulmonology of the National and Kapodistrian University of Athens between June 2014 and November 2017. All patients were intubated and mechanically ventilated, and received inhaled CMS as part of their treatment for VAP or VAT caused by Gram-negative pathogens. Subjects were studied around the first dose of nebulized treatment, which always preceded intravenous treatment, to avoid confounding by colistin (or CMS) reaching the ELF via the systemic circulation. We excluded patients that received a dose different to the institution’s standard of 2 million international units (mIU) (~160 mg) of CMS and patients who were planned to receive intravenous colistin within 8 h of nebulization initiation.
A dose of 2 mIU of CMS (Colistin®, Norma Hellas, Athens, Greece), corresponding to approximately 160 mg CMS or 68 mg colistin-base activity, was nebulized over a 10–30 min period via either VMN (Aeroneb Solo with Aeroneb Pro controller, Aerogen, Galway, Ireland) or generic JN. This was not a randomized trial, and the nebulizer selection was exclusively a matter of availability of VMN consumables in the ICU at the time. The intended dose was dissolved in 4 mL of normal saline 0.9%. The nebulizer was placed at the inspiratory limb of the ventilator circuit, at 15 cm from the Y-piece, and the heat and moisture exchanger was removed. During nebulization, the patients were sedated and ventilated using assist volume controlled mode, with tidal volume set at 8 mL/kg of ideal body weight, a constant squared-wave inspiratory flow, a positive end expiratory pressure (PEEP) of less than or equal to 10 cm H2O, an inspiratory to expiratory time ratio equal to 1, an inspiratory pause of 10%, and a respiratory rate set at 15/min [31].
[…] The catheter was inserted through the endotracheal tube. The lavage was performed with instillation of 2 syringes of 20 mL sterile normal saline at room temperature through the catheter. The aspirate from the first syringe was considered representative of bronchial washing and was, therefore, discarded. The aspirate from the second syringe was collected and centrifuged in frigid centrifuge (3500× g for 10 min at 4 °C) immediately (<2 min) to avoid falsely elevated levels of urea in BAL [34] and CMS hydrolysis to formed colistin. The supernatant liquid was stored in plastic micro test tubes (Safe-lock; Eppendorf AG; Hamburg, Germany) and frozen at –80 °C, until analysis.
Colistin concentrations in plasma (Ccolistin,plasma) and epithelial lining fluid (Ccolistin,ELF) were measured through high performance liquid chromatography (HPLC)-fluorescence analysis.
The samples were rapidly centrifuged, and plasma and BAL supernatant were separated and kept frozen (−80 °C) before analysis, as previously described. An HPLC-RF assay was used for colistin concentration measurements in plasma and BAL fluid samples, based on the method of Li et al., as modified by Markou et al. and Ratjen et al.. Briefly, netilmicin was used as the internal standard and the method consisted of a protein precipitation step with trifluoracetic acid (TFA), followed by colistin derivatization with 9-fluorenylmethyl chloroformate on a solid phase extraction C18 cartridge. The eluted fluid was dried under vacuum and the solid residue was reconstituted in mobile phase for subsequent reversed-phase HPLC with fluorescence detection (excitation: 260 nm; emission: 316 nm). The analytical column was a Phenomenex Luna C18, 3 μm, 50 mm × 3 mm with 100 Å particle size, while the mobile phase consisted of ACN/THF/H2O (80/7.7/12.3%) with a flow rate of 0.5 mL/min. The injection volume was 20 μL. The method was linear at a concentration range of 0.10–4.8 mg/L (R^2 = 0.999). […]

CC[C@H](C)CCCCC(=O)N[C@@H](CCN)C(=O)N[C@H](C(=O)N[C@@H](CCN)C(=O)N[C@H]1CCNC(=O)[C@H]([C@@H](C)O)NC(=O)[C@H](CCN)NC(=O)[C@H](CCN)NC(=O)[C@H](CC(C)C)NC(=O)[C@@H](CC(C)C)NC(=O)[C@H](CCN)NC1=O)[C@@H](C)O [colistin] (X1-[Dab]T[Dab][Dab][Dab][dL]L[Dab][Dab]T; lactam 4-C)
average plasma concentration, in steady-state conditions, that predicts acute renal failure [1]: 2 mg/L
formed colistin plasma values linked to the occurrence of nephrotoxicity [1]: 2 to 2.5 mg/L
AUC0–8 h ([2]; JN, n = 6): 30.5 (26.0–36.8) mg/L∙h
AUC0–8 h ([2]; VMN, n = 18): 28.7 (15.1–68.1) mg/L∙h
Ccolistin over 2 mg/L, frequency of patients ([2]; 60 min, JN, n = 6): 16.7%
Ccolistin over 4 mg/L, frequency of patients ([2]; 60 min, JN, n = 6): 16.7%
Ccolistin over 2 mg/L, frequency of patients ([2]; 240 min, JN, n = 6): 100%
Ccolistin over 4 mg/L, frequency of patients ([2]; 240 min, JN, n = 6): 83.3%
Ccolistin over 2 mg/L, frequency of patients ([2]; 240 min, VMN, n = 18): 50%
Ccolistin over 4 mg/L, frequency of patients ([2]; 240 min, VMN, n = 18): 27.8%
Ccolistin over 2 mg/L, frequency of patients ([2]; 360 min, JN, n = 6): 83.3%
Ccolistin over 4 mg/L, frequency of patients ([2]; 360 min, JN, n = 6): 33.3%
Ccolistin over 2 mg/L, frequency of patients ([2]; 360 min, VMN, n = 18): 88.9%
Ccolistin over 4 mg/L, frequency of patients ([2]; 360 min, VMN, n = 18): 83.3%
Ccolistin over 2 mg/L, frequency of patients ([2]; 480 min, JN, n = 6): 0%
Ccolistin over 4 mg/L, frequency of patients ([2]; 480 min, JN, n = 6): 0%
Ccolistin over 2 mg/L, frequency of patients ([2]; 480 min, VMN, n = 18): 41.2%
Ccolistin over 4 mg/L, frequency of patients ([2]; 480 min, VMN, n = 18): 17.6%
Volume of distribution/ fraction of dose absorbed ([2]; JN, n = 6): 4.5 (3.5–5.1) L
Clearance/fraction of dose absorbed ([2]; JN, n = 6): 1.8 (1.5–2.1) L/h
Cmax ([2]; JN, n = 6): 7.4 (6.2–10.3) mg/L
AUC0–24 ([2]; JN, n = 6): 91.5 (78.1–110.3) mg/L∙h
Cmin ([2]; JN, n = 6): 1.1 (0.9–1.2) mg/L
Tmax ([2]; JN, n = 6): 4.3 (3.5–4.3) h
Volume of distribution/ fraction of dose absorbed ([2]; VMN, n = 18): 1.7 (0.8–5.2) L
Clearance/fraction of dose absorbed ([2]; VMN, n = 18): 1.4 (0.8–3.6) L/h
Cmax ([2]; VMN, n = 18): 10.4 (4.7–22.6) mg/L
AUC0–24 ([2]; VMN, n = 18): 86.2 (46.0–185.9) mg/L∙h
Cmin ([2]; VMN, n = 18): 0.4 (0.1–0.8) mg/L
Tmax ([2]; VMN, n = 18): 6.5 (6.3–6.6) h
level at 1 h ([2]; JN, n = 6): 1200 ng/mL
level at 1 h ([2]; VMN, n = 18): 700 ng/mL
level at 4 h ([2]; JN, n = 6): 6420 ng/mL
level at 4 h ([2]; VMN, n = 18): 2100 ng/mL
level at 6 h ([2]; JN, n = 6): 3300 ng/mL
level at 6 h ([2]; VMN, n = 18): 8600 ng/mL
level at 8 h ([2]; JN, n = 6): 1300 ng/mL
level at 8 h ([2]; VMN, n = 18): 1420 ng/mL
Kp ([2]; JN, n = 6): 4.8
Kp ([2]; VMN, n = 18): 5.5
